{"source": "patent US11110117B2", "about": "“Skin preparation composition for external use containing complex hyaluronic acid” (J2KBIO CO., LTD., priority 2019, dated 2021)", "key": {"[1]": {"system": "Human keratinocytes HaCaT cell lines", "assay": "Intracellular active oxygen scavenging effect after UVB (DCFH-DA fluorescence)", "format": "cell-based", "conditions": "sample 0.01 weight %, UVB 20 mJ/cm^2", "procedure": "Cell lines used in the experiment were the Human keratinocytes HaCaT cell lines distributed from Dr. Fusenig in German Cancer Research Center. […] Subsequently, 100 μl of HCSS treated for each concentration was added, and then the fluorescence of dichlorofluorescein (DCF) oxidized with active oxygen in the early stage was measured with a fluorescent plate reader (Ex; 485 nm, and Em; 530 nm). Subsequently, irradiation with UVB (20 mJ/cm^2) was performed, and the fluorescence after the sample treatment was measured by a fluorescent plate reader (Ex; 485 nm, and Em; 530 nm)."}, "type 1 procollagen": {"system": "type 1 procollagen", "assay": "Type 1 procollagen biosynthesis promoting effect (procollagen type-1 C-peptide EIA)", "format": "cell-based", "conditions": "sample 0.001 weight %; human dermal fibroblasts, 24 hours", "procedure": "Human dermal fibroblasts isolated from neonatal foreskin tissues were distributed from Modern Tissue Technology (MTT, Korea), and a 10% fetal bovine serum (FBS) was added to a medium of DMEM/F-12 (3:1) and cultured at the concentration of 1×10^4 cell/cm^2. At about 70% to 80% confluence, the cells were inoculated at a ratio of 1:3 and subcultured, and the cells subcultured for the third to fourth generations were used in the experiment.\nFor experiments to measure the amount of procollagen, the fibroblasts were cultured by more than 90% in a 48-well plate, and then each of […], and an amount of collagen isolated in the medium after 24 hours was measured by using a procollagen type-1 C-peptide EIA kit (MK101, Takara, Japan)."}, "[2]": {"assay": "Free radical scavenging activity by DPPH method", "format": "biochemical", "conditions": "sample 0.1 weight %, 30 minutes at 37° C.", "procedure": "Each sample was prepared at the concentration of 0.1% to measure DPPH free radical scavenging activity. Each sample at the above concentration was introduced to a 96-well plate, and DPPH produced with a 100 uM methanol solution was added thereto, such that the total volume of the solution became 200 μl. The resultant was left for 30 minutes at 37° C., and an absorbance was measured at 560 nm. The free radical scavenging activity (%) was calculated by Equation 2 below. Free radical scavenging activity (%)=100−(B/A)×100 <Equation 2> A: Absorbance of control wells in the absence of sample treatment B: Absorbance of experimental wells with sample treatment"}, "[3]": {"assay": "Antioxidant effect (active oxygen scavenging) by NBT method", "format": "biochemical", "conditions": "sample 0.1 weight %, absorbance 560 nm", "procedure": "In order to measure the antioxidant effect, active oxygen generated by xanthine and xanthine oxidase was measured by the NBT method, and an effect of removing active oxygen by a test substance, that is, the active oxygen scavenging effect was evaluated. Active oxygen was generated by xanthine and xanthine oxidase, and this active oxygen reacts with nitro blue tetrazolium (NBT). […] 0.1 ml of a xanthine oxidase solution was added and quickly stirred, culture at 25° C. for 20 minutes was started, 0.1 ml of a 6 mM CuCl2 solution was added to stop the reaction, and an absorbance St at 560 nm was measured. In a blank test, the same operation was performed in the same manner except that distilled water was used instead of the sample solution, and an absorbance Bt was measured. In a blank of the sample solution, the same operation was performed in the same manner except that the distilled water was used instead of xanthine oxidase, and an absorbance […] was measured. Inhibition rate (%)=[1−(St−So)/(Bt−Bo)]×100 <Equation 1> St: Absorbance at 560 nm after enzyme reaction of sample solution Bt: Absorbance at 560 nm after enzyme reaction of blank test solution So: Absorbance at 560 nm before reaction of sample solution in the absence of enzyme Bo: Absorbance at 560 nm before reaction of blank test solution in the absence of enzyme"}, "MMP-1": {"system": "MMP-1", "assay": "MMP-1 expression inhibition after UVA irradiation (ELISA)", "format": "cell-based", "conditions": "retinol, concentration not given; human dermal fibroblasts, UVA 6.3 J/cm^2, 24 hours", "procedure": "Human dermal fibroblasts were irradiated with UVA at an energy of 6.3 J/cm^2 by using a UV chamber. With respect to UV irradiation dose and culture time, conditions for maximizing an MMP expression amount in fibroblasts were established by preliminary experiments. A negative control was wrapped in silver foil and kept for the same period of time in the UVA environment. A UVA emission amount was measured by using a UV radiometer. The cells during the UVA irradiation were the same medium inoculated before without change and were exchanged with a medium containing the samples after UVA irradiation. The medium was collected after culturing for 24 hours, and 96 wells were coated with the medium. A primary antibody (MMP-1 (Ab-5) monoclonal antibody) was treated and reacted at 37° C. for 60 minutes. After an anti-mouse IgG (whole mouse, alkaline phosphatase conjugated), which was a secondary antibody, was reacted again for about 60 minutes, the alkaline phosphatase substrate solution (1 mg/ml p-nitrophenyl phosphate in diethanolamine buffer solution) was reacted at room temperature for 30 minutes, and then an absorbance was measured at 405 nm with a plate reader. As a control, a medium to which the sample was not added was used."}}, "data": [{"compound": "O=C(O[C@@H]1Cc2c(O)cc(O)cc2O[C@@H]1c1cc(O)c(O)c(O)c1)c1cc(O)c(O)c(O)c1", "note": "[EGCG]", "values": [{"measurement": "Active oxygen scavenging effect (%)", "setting": "[1]", "value": 45, "unit": "%"}]}, {"compound": "TGF-β", "values": [{"measurement": "Procollagen biosynthesis promoting effect (%)", "setting": "type 1 procollagen", "value": 35, "unit": "%"}]}, {"compound": "Cc1cc(C(C)(C)C)c(O)c(C(C)(C)C)c1", "note": "[BHT, butylated hydroxytoluene]", "values": [{"measurement": "Free radical scavenging activity (%)", "setting": "[2]", "value": 81, "unit": "%"}, {"measurement": "Antioxidant effect (active oxygen scavenging) (%)", "setting": "[3]", "value": 87, "unit": "%"}]}, {"compound": "CC1=C(/C=C/C(C)=C/C=C/C(C)=C/CO)C(C)(C)CCC1", "note": "[Retinol, retinol]", "values": [{"measurement": "MMP-1 expression inhibition rate (%)", "setting": "MMP-1", "value": 38, "unit": "%"}]}]}
